# Publication PMC3510435 (Febs Letters, 2012)
# Columns and labels:
# [1] = target: T1, APH(3′)-IIIa (aminoglycoside phosphotransferase(3′)-IIIa) (Enterococcus faecalis, UniProt P0A3Y5); experiment: rapid quench flow, total ADP by HPLC; type: biochemical; conditions: 20 μM ADP added together with 20 μM ATP, 5 μM enzyme, 100 μM KanA, 25 °C, pH 7.5; competes with ATP for E·KanA; also the reaction product
# T1 construct: gene aphA; recombinant, N-terminal 6His-tag kept (pET15b), E. coli BL21(DE3)
# [2] = target: T1, APH(3′)-IIIa (aminoglycoside phosphotransferase(3′)-IIIa); experiment: quench flow and coupled-assay stopped flow, ADP production; type: biochemical; conditions: 100 μM KanA, 200 μM ATP, 0.2 μM enzyme, 25 °C, pH 7.5; KanA also binds the E·ADP complex (uncompetitive-type abortive complex)
# T1 sequence (P0A3Y5 whole entry): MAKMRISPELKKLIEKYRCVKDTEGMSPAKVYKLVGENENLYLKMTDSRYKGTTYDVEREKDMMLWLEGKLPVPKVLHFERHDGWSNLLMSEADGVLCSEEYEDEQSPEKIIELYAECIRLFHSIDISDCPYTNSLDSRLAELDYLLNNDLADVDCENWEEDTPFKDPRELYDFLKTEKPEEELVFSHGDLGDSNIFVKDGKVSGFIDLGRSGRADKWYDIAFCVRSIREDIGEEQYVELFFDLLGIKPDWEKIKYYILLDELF
Structure (SMILES),% reduction of kss and Aburst [1],"quench flow and coupled-assay stopped flow, ADP production [2]"
Nc1ncnc2c1ncn2[C@@H]1O[C@H](COP(=O)(O)OP(=O)(O)O)[C@@H](O)[C@H]1O [ADP],~ 50%,–
NC[C@H]1O[C@H](O[C@H]2[C@H](O)[C@@H](O[C@H]3O[C@H](CO)[C@@H](O)[C@H](N)[C@H]3O)[C@H](N)C[C@@H]2N)[C@H](O)[C@@H](O)[C@@H]1O [kanamycin A],–,The initial kss determined by the two methods were identical
